Measured values as given in PubChem BioAssay (NCI).
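Each compound was tested at five concentrations against cells in 96-well plates for 48 hours. Here, GI50 denotes the concentration required for 50% inhibition of growth. At the TGI there is no net growth.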

Key:
Experiment in all cases: NCI-60 cell line screen, 48 h
[1] = test system: 786-0 renal
[2] = test system: A549 NSCLC
[3] = test system: CAKI-1 renal
[4] = test system: CCRF-CEM leukemia
[5] = test system: COLO 205 colon
[6] = test system: DU-145 prostate
[7] = test system: EKVX NSCLC
[8] = test system: HCC-2998 colon
[9] = test system: HCT-15 colon
[10] = test system: HL-60(TB) leukemia
[11] = test system: HOP-62 NSCLC
[12] = test system: HT29 colon
[13] = test system: IGROV1 ovarian
[14] = test system: K-562 leukemia
[15] = test system: KM12 colon
[16] = test system: M14 melanoma
[17] = test system: MALME-3M melanoma
[18] = test system: MCF7 breast
[19] = test system: MDA-MB-231 breast
[20] = test system: MDA-N
[21] = test system: MOLT-4 leukemia
[22] = test system: NCI-H23 lung
[23] = test system: OVCAR-8 ovarian
[24] = test system: PC-3 prostate
[25] = test system: RPMI-8226 leukemia
[26] = test system: RXF 393 renal
[27] = test system: SF-268 CNS
[28] = test system: SF-295 CNS
[29] = test system: SK-MEL-28 melanoma
[30] = test system: SK-MEL-5 melanoma
[31] = test system: SK-OV-3 ovarian
[32] = test system: SN12C renal
[33] = test system: SNB-75 CNS
[34] = test system: SW-620 colon
[35] = test system: T-47D breast
[36] = test system: TK-10 renal
[37] = test system: UACC-257 melanoma
[38] = test system: UACC-62 melanoma
[39] = test system: A498 renal
[40] = test system: ACHN renal
[41] = test system: HCT-116 colon
[42] = test system: HOP-92 NSCLC
[43] = test system: MDA-MB-435
[44] = test system: NCI-H226 lung
[45] = test system: NCI/ADR-RES ovarian
[46] = test system: OVCAR-3 ovarian
[47] = test system: OVCAR-4 ovarian
[48] = test system: OVCAR-5 ovarian
[49] = test system: SF-539 CNS
[50] = test system: SNB-19 CNS
[51] = test system: U251 CNS
[52] = test system: UO-31 renal
[53] = test system: BT-549 breast
[54] = test system: HS 578T breast
[55] = test system: LOX IMVI melanoma
[56] = test system: NCI-H460 lung
[57] = test system: NCI-H522 lung
[58] = test system: SK-MEL-2 melanoma
[59] = test system: SR leukemia

CC1OC(c2ccc3c(OCc4ccccc4)cccc3c2O)CC(OCc2ccccc2)[C@H]1OCc1ccccc1 (stereo partly specified)
TGI [1]: > 10 µM
TGI [2]: > 10 µM
TGI [3]: > 10 µM
TGI [4]: > 10 µM
TGI [5]: > 10 µM
TGI [6]: > 10 µM
TGI [7]: > 10 µM
TGI [8]: > 10 µM
TGI [9]: > 10 µM
TGI [10]: > 10 µM
TGI [11]: > 10 µM
TGI [12]: > 10 µM
TGI [13]: > 10 µM
TGI [14]: > 10 µM
TGI [15]: > 10 µM
TGI [16]: > 10 µM
TGI [17]: > 10 µM
TGI [18]: > 10 µM
TGI [19]: > 10 µM
TGI [20]: > 10 µM
TGI [21]: > 10 µM
TGI [22]: > 10 µM
TGI [23]: > 10 µM
TGI [24]: > 10 µM
TGI [25]: > 10 µM
TGI [26]: > 10 µM
TGI [27]: > 10 µM
TGI [28]: > 10 µM
TGI [29]: > 10 µM
TGI [30]: > 10 µM
TGI [31]: > 10 µM
TGI [32]: > 10 µM
TGI [33]: > 10 µM
TGI [34]: > 10 µM
TGI [35]: > 10 µM
TGI [36]: > 10 µM
TGI [37]: > 10 µM
TGI [38]: > 10 µM

CC1(C)CC(=O)C(C(CC(c2ccccc2)c2cc3c(cc2O)OCO3)C2=C(O)CC(C)(C)CC2=O)=C(O)C1 (stereo unspecified)
TGI [39]: > 10 µM
TGI [2]: > 10 µM
TGI [40]: > 10 µM
TGI [3]: > 10 µM
TGI [5]: > 10 µM
TGI [6]: > 10 µM
TGI [7]: > 10 µM
TGI [41]: > 10 µM
TGI [9]: > 10 µM
TGI [42]: > 10 µM
TGI [12]: > 10 µM
TGI [13]: > 10 µM
TGI [15]: > 10 µM
TGI [16]: > 10 µM
TGI [19]: > 10 µM
TGI [43]: > 10 µM
TGI [20]: > 10 µM
TGI [44]: > 10 µM
TGI [22]: > 10 µM
TGI [45]: > 10 µM
TGI [46]: > 10 µM
TGI [47]: > 10 µM
TGI [48]: > 10 µM
TGI [23]: > 10 µM
TGI [24]: > 10 µM
TGI [26]: > 10 µM
TGI [27]: > 10 µM
TGI [28]: > 10 µM
TGI [49]: > 10 µM
TGI [30]: > 10 µM
TGI [32]: > 10 µM
TGI [50]: > 10 µM
TGI [33]: > 10 µM
TGI [34]: > 10 µM
TGI [36]: > 10 µM
TGI [51]: > 10 µM
TGI [52]: > 10 µM

Cc1nnc(Nc2ccc(NC(=O)Nc3ccc(Cl)cc3)cc2)c2ccccc12
GI50 [1]: 1.71 µM
TGI [1]: 3.34 µM
GI50 [39]: 3.21 µM
TGI [39]: 10.5 µM
GI50 [2]: 3.24 µM
TGI [2]: 8.59 µM
GI50 [40]: 1.84 µM
TGI [40]: 3.69 µM
GI50 [53]: 2.21 µM
TGI [53]: 5.56 µM
GI50 [3]: 3.49 µM
TGI [3]: 12.8 µM
GI50 [4]: 2.38 µM
TGI [4]: 5.99 µM
GI50 [5]: 2.22 µM
TGI [5]: 5.29 µM
GI50 [6]: 4.77 µM
TGI [6]: 19.5 µM
GI50 [7]: 3.47 µM
TGI [7]: 17.9 µM
GI50 [8]: 2.84 µM
TGI [8]: 8.09 µM
GI50 [41]: 1.86 µM
TGI [41]: 3.59 µM
GI50 [9]: 1.91 µM
TGI [9]: 4.53 µM
GI50 [10]: 2.03 µM
TGI [10]: 4.19 µM
GI50 [11]: 1.81 µM
TGI [11]: 3.7 µM
GI50 [42]: 2.56 µM
TGI [42]: 6.06 µM
GI50 [54]: 2.52 µM
TGI [54]: 6.4 µM
GI50 [12]: 1.78 µM
TGI [12]: 3.67 µM
GI50 [13]: 3.98 µM
TGI [13]: 19.5 µM
GI50 [14]: 2.2 µM
TGI [14]: 4.67 µM
GI50 [15]: 1.99 µM
TGI [15]: 4.53 µM
GI50 [55]: 1.75 µM
TGI [55]: 3.27 µM
GI50 [16]: 1.76 µM
TGI [16]: 3.57 µM
GI50 [17]: 2.17 µM
TGI [17]: 4.79 µM
GI50 [18]: 2.21 µM
TGI [18]: 10.9 µM
GI50 [19]: 2.38 µM
TGI [19]: 5.94 µM
GI50 [43]: 1.73 µM
TGI [43]: 3.43 µM
GI50 [21]: 2.36 µM
TGI [21]: 6 µM
GI50 [44]: 3.61 µM
TGI [44]: 15.9 µM
GI50 [22]: 2.38 µM
TGI [22]: 6.31 µM
GI50 [56]: 3.46 µM
TGI [56]: 11.7 µM
GI50 [57]: 1.84 µM
TGI [57]: 3.88 µM
GI50 [45]: 3.63 µM
TGI [45]: 14.9 µM
GI50 [46]: 1.87 µM
TGI [46]: 3.99 µM
GI50 [47]: 2.79 µM
TGI [47]: 8.36 µM
GI50 [48]: 2.1 µM
TGI [48]: 4.99 µM
GI50 [23]: 3.35 µM
TGI [23]: 9.32 µM
GI50 [24]: 3.49 µM
TGI [24]: 11.9 µM
GI50 [25]: 2.6 µM
TGI [25]: 6.48 µM
GI50 [26]: 2.17 µM
TGI [26]: 4.13 µM
GI50 [27]: 2.57 µM
TGI [27]: 7.17 µM
GI50 [28]: 2.04 µM
TGI [28]: 4.21 µM
GI50 [49]: 1.61 µM
TGI [49]: 3.32 µM
GI50 [58]: 2.22 µM
TGI [58]: 4.59 µM
GI50 [29]: 1.63 µM
TGI [29]: 3.2 µM
GI50 [30]: 1.85 µM
TGI [30]: 3.5 µM
GI50 [31]: 2.61 µM
TGI [31]: 6.59 µM
GI50 [32]: 2.86 µM
TGI [32]: 9.41 µM
GI50 [50]: 2.77 µM
TGI [50]: 8.72 µM
GI50 [33]: 1.91 µM
TGI [33]: 5.49 µM
GI50 [59]: 2.56 µM
TGI [59]: 9.55 µM
GI50 [34]: 2.15 µM
TGI [34]: 4.76 µM
GI50 [35]: 2.06 µM
TGI [35]: 5.08 µM
GI50 [36]: 3.19 µM
TGI [36]: 9.42 µM
GI50 [51]: 1.98 µM
TGI [51]: 3.75 µM
GI50 [37]: 2.39 µM
TGI [37]: 5.3 µM
GI50 [38]: 1.75 µM
TGI [38]: 3.59 µM
GI50 [52]: 2.14 µM
TGI [52]: 6.01 µM
